{
  "source": "patent US20260115177A1",
  "about": "“MEDICINAL PRODUCTS AND METHODS FOR THE ALLEVIATION OF CANCER IMMUNOTHERA-PY-ASSOCIATED CYTOKINE RELEASE SYNDROME” (POOLBEG PHARMA (UK) LIMITED, priority 2023, published 2026)",
  "key": {"[1]": {"system": "PBMC-humanized NSG-MHC I/II double knock-out mice with Raji-Luc CD19-expressing cancer cells", "test": "In vivo (murine) model using CAR T for CRS induction", "design": "species or system mouse", "protocol": "An outline of the timeline of the model is provided in FIG. 16; it commences on Study Day −5 and ends on Study Day 10.\nThus, on Study Day −5, 30 female 6- to 8-week-old NSG-(KbDb)null (IA)null mice are irradiated at 100 cGy. 4 hours later, on the same day (Study Day −5) they are each injected, via tail vein, with 0.25×10^6 Raji-Luc CD19-expressing cancer cells (a Raji wild-type cell line with stable and high expression of luciferase, enabling detection of cancer burden by […]).\nOn Study Day −2, clinical observation commences for all 30 mice (including body weight monitoring) and all 30 mice are imaged using in vivo […] imaging (IVIS). For IVIS, mice are intraperitoneally injected with 150 mg/kg D-Luciferin. 10 minutes after the D-Luciferin injection, mice are imaged dorsally and ventrally (auto exposure) using an IVIS Lumina system (obtainable from PerkinElmer of Chalfont Road, Seer Green, Beaconsfield, HP9 2FX, UK). Region of interest (ROI) are drawn for each mouse to capture its whole body, and total flux (p/s) is reported. IVIS imaging of all 30 mice continues on a biweekly basis throughout the study, thereby monitoring cancer cell burden. Daily clinical observation continues throughout the study, including observation of CRS, CRS being scored as follows:\n25 of the mice are injected intraperitoneally, on Study Day 0, with 5×10^6 anti-CD19 CAR T cells in phosphate-buffered saline.\nAs a control, a group consisting of 5 of the mice (“Group 1”) are not administered CAR T cells. Beginning on Study Day −1 and ending on Study Day 9, Group 1 receive treatment with 0.5% (w:v) HPMC, 0.1% (w:v) Tween 80 in sWFI (vehicle/control), administered BID at 5 mL/kg.\nThe 25 mice administered CAR T cells are divided into groups of 5 mice per group. […]"}, "CAR T cells": {"system": "CAR T cells", "test": "CAR T cell proliferation in CAR T cell:cancer cell co-culture (Cell Trace Violet, flow cytometry)", "format": "cell-based, human", "conditions": "CAR T:tumour cell co-culture 1:1; concentrations of Table 2", "protocol": "CAR T cell proliferation is confirmed by Cell Trace™ Violet staining of CAR T cells (staining agent having been added prior to addition of the T cells to the co-cultures with tumour cells). Staining may be observed, following co-culture, via flow cytometry.\nUR-13870, Ralimetinib or Acumapimod are each added to a culture of CD19+ cancer cells (using a micropipette to transfer the correct volume to achieve the desired final concentration in Table 2).\nCAR T cells are then added to the same culture 5-10 minutes later. In brief, CAR T cell concentrations per ml are determined and used to aliquot the desired number of CAR T cells into the culture to achieve the described 1:1 CAR T to cancer cell ratio.\nThe co-culture containing CAR T cells and tumour cells is swirled gently to ensure homogenous dispersion of cells throughout the vessel. The resultant co-culture is incubated for 24 to 96 hours in a closed incubator at 37° C. with 5% CO2 and a suitably humid atmosphere."}, "HUVEC endothelial cells": {"system": "HUVEC endothelial cells", "test": "QPCR of VCAM1, ICAM1 and IL-6 in HUVEC cells treated with sCAR", "format": "cell-based, human", "conditions": "24 hours", "protocol": "In like manner and also in Example 3 below, sCAR (or smCAR) is added to endothelial (HUVEC) cells, available from the American Type Culture Collection, and using an equivalent protocol to the treatment of THP-1 cells (but with individually optimised conditions, such as the concentration of sCAR used), following which IL-6 release and IL-8 release are observed. Pro-inflammatory cytokines IL-6 and IL-8 are measured using an enzyme-linked immunosorbent assay (ELISA) and IL-6, ICAM1 and VCAM1 are measured by quantitative PCR (QPCR, for which a kit is suitably obtainable from Thermo Fisher Scientific of Kingfisher Dr, Swindon SN3 5BZ, UK).\nsCAR (or smCAR), produced as described in Example 1 above, is added to a monoculture of HUVEC endothelial cells in the presence of UR-13870, Ralimetinib or Acumapimod at each of the concentrations shown in Table 2 above, at 37° C., 5% CO2 and a suitably humid environment for 24 hours."}},
  "data": [
    {"molecule": "OCCCn1cc2c(-c3ccc(F)cc3)c(-c3ccncc3)c(-c3ccc(F)cc3)nc2n1", "note": "[UR-13870, 6-bis(4-fluorophenyl)-5-(4-pyridinyl)-2Hpyrazolo[3,4-b]pyridine-2-propanol]", "values": [
      {"measurement": "CAR T cell expansion (flow cytometry)", "setting": "[1]; blood, Study Days 2, 6 and 10", "value": "successfully maintained"},
      {"measurement": "CAR T cell therapy efficacy, tumour burden (IVIS)", "setting": "[1]; day 7 and day 9, UR-13870 2, 10, 25 mg/kg BID s.c., Humira 5 mg/kg i.p. once", "value": "remained efficacious"},
      {"measurement": "number of CAR T cells in circulation", "setting": "[1]; day 10, high dose (25 mg/kg BID)", "value": "significantly enhanced"},
      {"measurement": "CAR T cell proliferation (Cell Trace Violet staining)", "setting": "CAR T cells", "value": "maintain CAR T cell proliferation"},
      {"measurement": "ICAM1 mRNA levels", "setting": "HUVEC endothelial cells", "value": "significantly reduce"},
      {"measurement": "IL-6 mRNA levels", "setting": "HUVEC endothelial cells", "value": "significantly reduce"},
      {"measurement": "VCAM1 mRNA levels", "setting": "HUVEC endothelial cells", "value": "reduced, albeit non-significantly"}
    ]}
  ]
}
